Source: PubChem BioAssay (NCI)
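Grown in 96-well plates, cells were treated for 48 hours with each compound at five concentrations. Insufficient inhibition: endpoint recorded as highest concentration tested. Definition used: TGI = concentration required for complete inhibition of growth.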

Experiments:
Assay in all cases: DTP human tumour cell line panel, 48 h
A549 NSCLC = tested on: A549 NSCLC
NCI-H460 lung = tested on: NCI-H460 lung
IGROV1 ovarian = tested on: IGROV1 ovarian
A498 renal = tested on: A498 renal
K-562 leukemia = tested on: K-562 leukemia
HCT-116 colon = tested on: HCT-116 colon
SF-268 CNS = tested on: SF-268 CNS
HCC-2998 colon = tested on: HCC-2998 colon
MDA-N = tested on: MDA-N
SK-MEL-5 melanoma = tested on: SK-MEL-5 melanoma
MALME-3M melanoma = tested on: MALME-3M melanoma
U251 CNS = tested on: U251 CNS
OVCAR-4 ovarian = tested on: OVCAR-4 ovarian
BT-549 breast = tested on: BT-549 breast
SK-MEL-28 melanoma = tested on: SK-MEL-28 melanoma
OVCAR-3 ovarian = tested on: OVCAR-3 ovarian
HT29 colon = tested on: HT29 colon
MDA-MB-435 = tested on: MDA-MB-435
NCI-H226 lung = tested on: NCI-H226 lung
T-47D breast = tested on: T-47D breast
MCF7 breast = tested on: MCF7 breast
RPMI-8226 leukemia = tested on: RPMI-8226 leukemia
MDA-MB-231 breast = tested on: MDA-MB-231 breast
ACHN renal = tested on: ACHN renal
KM12 colon = tested on: KM12 colon
HL-60(TB) leukemia = tested on: HL-60(TB) leukemia
HS 578T breast = tested on: HS 578T breast
NCI/ADR-RES ovarian = tested on: NCI/ADR-RES ovarian
M14 melanoma = tested on: M14 melanoma
COLO 205 colon = tested on: COLO 205 colon
SW-620 colon = tested on: SW-620 colon
NCI-H23 lung = tested on: NCI-H23 lung
LOX IMVI melanoma = tested on: LOX IMVI melanoma
SN12C renal = tested on: SN12C renal
DU-145 prostate = tested on: DU-145 prostate
NCI-H522 lung = tested on: NCI-H522 lung
SNB-19 CNS = tested on: SNB-19 CNS
CAKI-1 renal = tested on: CAKI-1 renal
TK-10 renal = tested on: TK-10 renal
PC-3 prostate = tested on: PC-3 prostate
UACC-62 melanoma = tested on: UACC-62 melanoma
UO-31 renal = tested on: UO-31 renal
786-0 renal = tested on: 786-0 renal
SK-OV-3 ovarian = tested on: SK-OV-3 ovarian
HCT-15 colon = tested on: HCT-15 colon
SK-MEL-2 melanoma = tested on: SK-MEL-2 melanoma
SF-539 CNS = tested on: SF-539 CNS
SF-295 CNS = tested on: SF-295 CNS
RXF 393 renal = tested on: RXF 393 renal
CCRF-CEM leukemia = tested on: CCRF-CEM leukemia
HOP-92 NSCLC = tested on: HOP-92 NSCLC
UACC-257 melanoma = tested on: UACC-257 melanoma
OVCAR-8 ovarian = tested on: OVCAR-8 ovarian
OVCAR-5 ovarian = tested on: OVCAR-5 ovarian
SNB-75 CNS = tested on: SNB-75 CNS
EKVX NSCLC = tested on: EKVX NSCLC
HOP-62 NSCLC = tested on: HOP-62 NSCLC
MOLT-4 leukemia = tested on: MOLT-4 leukemia

Which results are given for `Cn1c(=O)[nH]n(-c2ccc3ccccc3c2)c1=O`?
TGI (A549 NSCLC): > 100 µM; TGI (NCI-H460 lung): > 100 µM; TGI (IGROV1 ovarian): > 100 µM; TGI (A498 renal): > 100 µM; TGI (K-562 leukemia): > 100 µM; TGI (HCT-116 colon): > 100 µM; TGI (SF-268 CNS): > 100 µM; TGI (HCC-2998 colon): > 100 µM; TGI (MDA-N): > 100 µM; TGI (SK-MEL-5 melanoma): > 100 µM; TGI (MALME-3M melanoma): > 100 µM; TGI (U251 CNS): > 100 µM; TGI (OVCAR-4 ovarian): > 100 µM; TGI (BT-549 breast): > 100 µM; TGI (SK-MEL-28 melanoma): > 100 µM; TGI (OVCAR-3 ovarian): > 100 µM; TGI (HT29 colon): > 100 µM; TGI (MDA-MB-435): > 100 µM; TGI (NCI-H226 lung): > 100 µM; TGI (T-47D breast): > 100 µM; TGI (MCF7 breast): > 100 µM; TGI (RPMI-8226 leukemia): > 100 µM; TGI (MDA-MB-231 breast): > 100 µM; TGI (ACHN renal): > 100 µM; TGI (KM12 colon): > 100 µM; TGI (HL-60(TB) leukemia): > 100 µM; TGI (HS 578T breast): > 100 µM; TGI (NCI/ADR-RES ovarian): > 100 µM; TGI (M14 melanoma): > 100 µM; TGI (COLO 205 colon): > 100 µM; TGI (SW-620 colon): > 100 µM; TGI (NCI-H23 lung): > 100 µM; TGI (LOX IMVI melanoma): > 100 µM; TGI (SN12C renal): > 100 µM; TGI (DU-145 prostate): > 100 µM; TGI (NCI-H522 lung): > 100 µM; TGI (SNB-19 CNS): > 100 µM; TGI (CAKI-1 renal): > 100 µM; TGI (TK-10 renal): > 100 µM; TGI (PC-3 prostate): > 100 µM; TGI (UACC-62 melanoma): > 100 µM; TGI (UO-31 renal): > 100 µM; TGI (786-0 renal): > 100 µM; TGI (SK-OV-3 ovarian): > 100 µM; TGI (HCT-15 colon): > 100 µM; TGI (SK-MEL-2 melanoma): > 100 µM; TGI (SF-539 CNS): > 100 µM; TGI (SF-295 CNS): > 100 µM; TGI (RXF 393 renal): > 100 µM; TGI (CCRF-CEM leukemia): > 100 µM; TGI (HOP-92 NSCLC): > 100 µM; TGI (UACC-257 melanoma): > 100 µM; TGI (OVCAR-8 ovarian): > 100 µM; TGI (OVCAR-5 ovarian): > 100 µM; TGI (SNB-75 CNS): > 100 µM; TGI (EKVX NSCLC): > 100 µM

For `CCCC1c2c(ccc3ccccc23)Oc2ccc3ccccc3c21`, which TGI (A549 NSCLC) is on record?
The TGI was greater than 100 µM.

What about the TGI (NCI-H460 lung) of the same molecule?
Its TGI is greater than 100 µM.

And the TGI (IGROV1 ovarian)?
The TGI was greater than 100 µM.

And the TGI (HOP-62 NSCLC)?
Its TGI is greater than 100 µM.

And the TGI (A498 renal)?
The TGI was 78 µM.

What about the TGI (HCT-116 colon) of the same molecule?
The TGI was greater than 100 µM.

And the TGI (SF-268 CNS)?
Its TGI is greater than 100 µM.

What about the TGI (MDA-N) of the same molecule?
Its TGI is greater than 100 µM.

What about the TGI (SK-MEL-5 melanoma) of the same molecule?
Its TGI is greater than 100 µM.

What about the TGI (MALME-3M melanoma) of the same molecule?
Its TGI is greater than 100 µM.

What about the TGI (U251 CNS) of the same molecule?
The TGI was greater than 100 µM.

And the TGI (OVCAR-4 ovarian)?
Its TGI is greater than 100 µM.

And the TGI (BT-549 breast)?
Its TGI is greater than 100 µM.

What about the TGI (SK-MEL-28 melanoma) of the same molecule?
The TGI was greater than 100 µM.

What about the TGI (OVCAR-3 ovarian) of the same molecule?
Its TGI is greater than 100 µM.

And the TGI (HT29 colon)?
Its TGI is greater than 100 µM.

And the TGI (MDA-MB-435)?
The TGI was greater than 100 µM.

What about the TGI (NCI-H226 lung) of the same molecule?
Its TGI is greater than 100 µM.

And the TGI (T-47D breast)?
Its TGI is greater than 100 µM.

What about the TGI (MCF7 breast) of the same molecule?
Its TGI is 35.6 µM.

And the TGI (RPMI-8226 leukemia)?
The TGI was 98.6 µM.

And the TGI (MDA-MB-231 breast)?
Its TGI is greater than 100 µM.

And the TGI (ACHN renal)?
Its TGI is greater than 100 µM.

And the TGI (KM12 colon)?
Its TGI is greater than 100 µM.

What about the TGI (HS 578T breast) of the same molecule?
Its TGI is greater than 100 µM.

And the TGI (NCI/ADR-RES ovarian)?
Its TGI is greater than 100 µM.

What about the TGI (M14 melanoma) of the same molecule?
The TGI was greater than 100 µM.

What about the TGI (COLO 205 colon) of the same molecule?
Its TGI is greater than 100 µM.

And the TGI (SW-620 colon)?
Its TGI is greater than 100 µM.

And the TGI (MOLT-4 leukemia)?
The TGI was greater than 100 µM.

What about the TGI (NCI-H23 lung) of the same molecule?
Its TGI is greater than 100 µM.

And the TGI (LOX IMVI melanoma)?
The TGI was greater than 100 µM.

What about the TGI (SN12C renal) of the same molecule?
The TGI was greater than 100 µM.

And the TGI (DU-145 prostate)?
Its TGI is greater than 100 µM.

What about the TGI (NCI-H522 lung) of the same molecule?
Its TGI is 80.4 µM.

What about the TGI (SNB-19 CNS) of the same molecule?
The TGI was greater than 100 µM.

What about the TGI (CAKI-1 renal) of the same molecule?
The TGI was greater than 100 µM.

And the TGI (TK-10 renal)?
Its TGI is 98.2 µM.

And the TGI (PC-3 prostate)?
The TGI was greater than 100 µM.

And the TGI (UACC-62 melanoma)?
The TGI was greater than 100 µM.

And the TGI (UO-31 renal)?
Its TGI is greater than 100 µM.

And the TGI (786-0 renal)?
Its TGI is greater than 100 µM.

What about the TGI (SK-OV-3 ovarian) of the same molecule?
The TGI was greater than 100 µM.

What about the TGI (HCT-15 colon) of the same molecule?
The TGI was greater than 100 µM.

What about the TGI (SK-MEL-2 melanoma) of the same molecule?
Its TGI is 54.3 µM.

What about the TGI (SF-539 CNS) of the same molecule?
Its TGI is greater than 100 µM.

What about the TGI (SF-295 CNS) of the same molecule?
The TGI was 88.6 µM.

What about the TGI (RXF 393 renal) of the same molecule?
Its TGI is greater than 100 µM.

And the TGI (HOP-92 NSCLC)?
Its TGI is greater than 100 µM.

What about the TGI (UACC-257 melanoma) of the same molecule?
The TGI was 70.8 µM.

And the TGI (OVCAR-8 ovarian)?
The TGI was greater than 100 µM.

And the TGI (OVCAR-5 ovarian)?
Its TGI is greater than 100 µM.

And the TGI (SNB-75 CNS)?
Its TGI is greater than 100 µM.

And the TGI (EKVX NSCLC)?
The TGI was greater than 100 µM.
